Results as given in ChEMBL document CHEMBL4651402, “Screening of ~5500 FDA-approved drugs and clinical candidates for anti-SARS-CoV-2 activity” (2021).

Test system: SARS-CoV-2
Test: microbe, parasite or virus in culture
Settings: Severe acute respiratory syndrome coronavirus 2, Vero C1008, 48 h

SMILES | IC50 | IC50 (read-out: pIC50 (converted))
Cn1cc(Nc2nccc(N3CC4CCC(C3)N4C(=O)[C@@H]3CC3(F)F)n2)cn1 | > 20 µM | > 20 µM
O=C(O)CCCc1ccc(N(CCCl)CCCl)cc1 [CHLORAMBUCIL] | > 20 µM | > 20 µM
Nc1c2c(nc3ccccc13)CCCC2 [TACRINE] | > 20 µM | > 20 µM
Cc1nc2ccccn2c(=O)c1CCN1CCC(Nc2nc3cccnc3n2Cc2ccco2)CC1 [BARMASTINE] | > 20 µM | > 20 µM
CC1(C)CN2C(=O)c3[nH]cnc3N(Cc3ccc(Cl)cc3)C2=N1 | > 20 µM | > 20 µM
CN1CC(O)C2=CC(=O)C(=O)C=C21 (configuration not stated) | > 20 µM | > 20 µM
Nc1ccc(S(=O)(=O)c2ccc(NCC(=O)O)cc2)cc1 [ACEDIASULFONE] | > 20 µM | > 20 µM
CCOc1ccc2nccc([C@@H](O)[C@@H]3C[C@@H]4CCN3C[C@@H]4CC)c2c1 [ETHYLHYDROCUPREINE] | > 20 µM | > 20 µM
CC(CCC(=O)O)C1CCC2C3C(=O)C[C@@H]4CC(=O)CC[C@]4(C)C3CC(=O)[C@]12C (some centres not stated) | > 20 µM | > 20 µM
Clc1cccc(C(c2ccc3[nH]cnc3c2)n2ccnc2)c1 (configuration not stated) [LIAROZOLE] | > 20 µM | > 20 µM
O=P(O)(O)OC[C@H](O)CO | > 20 µM | > 20 µM
CC[N+](C)(C)Cc1ccccc1Br [BRETYLIUM] | > 20 µM | > 20 µM
CC(=O)OCC(=O)[C@@]1(O)[C@H](OC(C)=O)C[C@H]2[C@@H]3CCC4=CC(=O)C=C[C@]4(C)[C@@]3(F)[C@@H](O)C[C@@]21C [TRIAMCINOLONE DIACETATE] | > 20 µM | > 20 µM
CCOC(=O)c1ccc(O)cc1 [ETHYLPARABEN] | > 20 µM | > 20 µM
COc1ccc(COc2cc3oc(=O)c4cc(C(C)O)ccc4c3cc2OC)cc1 (configuration not stated) [PALOMID-529] | > 20 µM | > 20 µM
CC1CN(c2cc3c(cc2F)c(=O)c(C(=O)O)cn3-c2ccc(F)cc2F)CCN1 (configuration not stated) [TEMAFLOXACIN] | > 20 µM | > 20 µM
CC[C@@H]1[C@H](F)C(=O)N[C@@H]1COc1nccc2cc(C(N)=O)c(OC)cc12 [ZIMLOVISERTIB] | > 20 µM | > 20 µM
O=C(C1CCCCC1)N1CC(=O)N2CCCc3ccccc3C2C1 (configuration not stated) | > 20 µM | > 20 µM
CCN(CC)CCOc1ccc(Cc2ccccc2)cc1 | > 20 µM | > 20 µM
CCCN[C@H]1CCc2nc(N)sc2C1 [PRAMIPEXOLE] | > 20 µM | > 20 µM
CC(=O)/N=c1/sc(S(N)(=O)=O)nn1C [METHAZOLAMIDE] | > 20 µM | > 20 µM
Cc1ccc([C@@H]2O[C@H](CO)[C@@H](O)[C@H](O)[C@H]2O)cc1Cc1ccc(-c2ccc(F)cc2)s1 [CANAGLIFLOZIN ANHYDROUS] | > 20 µM | > 20 µM
CCC1(c2cccc(O)c2)CCCCN(C)C1 (configuration not stated) [MEPTAZINOL] | > 20 µM | > 20 µM
OCc1cccnc1 [NICOTINYL ALCOHOL] | > 20 µM | > 20 µM
COc1cc2c(cc1OC)C(=O)OC2 [METAMECONINE] | > 20 µM | > 20 µM
Cl/C(=C\n1cncn1)c1ccc(Cl)cc1Cl [LORECLEZOLE] | > 20 µM | > 20 µM

SMILES | IC50 | IC50 (read-out: pIC50 (converted))
CC1=CC(=O)c2c(O)cccc2C1=O [PLUMBAGIN] | > 20 µM | > 20 µM
Nc1ccn([C@@H]2O[C@H](CO)[C@@H](O)C2(F)F)c(=O)n1 [GEMCITABINE] | > 20 µM | > 20 µM
COC(=O)c1ccc2c(c1)NC(=O)/C2=C(\Nc1ccc(N(C)C(=O)CN2CCN(C)CC2)cc1)c1ccccc1 [NINTEDANIB] | > 20 µM | > 20 µM
COc1ccc2c(c1)C[C@@H](C)N(CCc1ccc(N)cc1)CC2 | > 20 µM | > 20 µM
CCOC(=O)c1cnc2c(cnn2CC)c1NN=C(C)C [ETAZOLATE] | > 20 µM | > 20 µM
OC1CCCCC1N1CCC(c2ccccc2)CC1 (configuration not stated) | > 20 µM | > 20 µM
O=c1[nH]c2ccccc2n1CCCN1CCC(n2c(=O)[nH]c3cc(Cl)ccc32)CC1 [DOMPERIDONE] | > 20 µM | > 20 µM
C[C@H]1CCC[C@H](O)CCCCCc2cc(O)cc(O)c2C(=O)O1 [ZERANOL] | > 20 µM | > 20 µM
OCCOCCN1CCN(C(c2ccccc2)c2ccc(Cl)cc2)CC1 (configuration not stated) [HYDROXYZINE] | > 20 µM | > 20 µM
CCCOC(=O)c1ccc(N)cc1 [RISOCAINE] | > 20 µM | > 20 µM
Cc1cn[nH]c1 [FOMEPIZOLE] | > 20 µM | > 20 µM
C=CCOC(Cn1ccnc1)c1ccc(Cl)cc1Cl (configuration not stated) [ENILCONAZOLE] | > 20 µM | > 20 µM
CC(=O)Oc1cc(C(F)(F)F)ccc1C(=O)O [TRIFLUSAL] | > 20 µM | > 20 µM
COc1cc2c(cc1OC)[C@@]13CCN4CC5=CCO[C@H]6CC(=O)N2[C@H]1[C@H]6[C@H]5C[C@H]43 [BRUCINE] | > 20 µM | > 20 µM
Cc1cnc(C(=O)N[C@H]2CCCCC/C=C\[C@@H]3C[C@@]3(C(=O)NS(=O)(=O)C3CC3)NC(=O)[C@@H]3C[C@@H](Oc4nc5ccccc5c5ccccc45)CN3C2=O)cn1 | > 20 µM | > 20 µM
C[C@H](Cn1cnc2c(N)ncnc21)OCP(=O)(O)O [TENOFOVIR ANHYDROUS] | > 20 µM | > 20 µM
Cc1cc(CC(C)CC(C)(C)C)n(O)c(=O)c1 (configuration not stated) [PIROCTONE] | > 20 µM | > 20 µM
CN(C)S(=O)(=O)c1cc2c(c(Cl)c1Cl)OC(C(=O)O)C2 (configuration not stated) | > 20 µM | > 20 µM
C#C[C@]1(CO)O[C@@H](n2cnc3c(N)nc(F)nc32)C[C@@H]1O | > 20 µM | > 20 µM
CC(=O)Oc1cc2c(s1)CCN(C(C(=O)C1CC1)c1ccccc1F)C2 (configuration not stated) | > 20 µM | > 20 µM
Cc1c(-c2ccnn2C)cc(C(=O)NCc2ccc(S(C)(=O)=O)cn2)c(=O)n1-c1cccc(C(F)(F)F)c1 | > 20 µM | > 20 µM
O=c1cc[nH]c(=O)[nH]1 [URACIL] | > 20 µM | > 20 µM
COc1cc2nc(N3CCN(C(=O)C4COc5ccccc5O4)CC3)nc(N)c2cc1OC (configuration not stated) [DOXAZOSIN] | > 20 µM | > 20 µM
CNc1nccc(-c2cc3cc(C(=O)N[C@@H](CN(c4ccccc4)c4ncccn4)C(N)=O)ccc3[nH]2)n1 | > 20 µM | > 20 µM
CC1(C)[C@@H](OC(=O)CCC(=O)O)CC[C@]2(C)[C@H]3C(=O)C=C4[C@@H]5C[C@@](C)(C(=O)O)CC[C@]5(C)CC[C@@]4(C)[C@]3(C)CC[C@@H]12 [CARBENOXOLONE] | > 20 µM | > 20 µM
COc1cc2occc2c2oc(=O)ccc12 [ISOBERGAPTENE] | > 20 µM | > 20 µM

SMILES | IC50 | IC50 (read-out: pIC50 (converted))
CCC(=O)OC1C(OC2C(C)C(OC3CC(C)(OC)C(O)C(C)O3)C(C)C(=O)OC(CC)C(C)(O)C(O)C(C)C(=O)C(C)CC2(C)O)OC(C)CC1N(C)C (configuration not stated) | > 20 µM | > 20 µM
CCC1(CC)C(=O)NC(=O)N(C)C1=O [METHARBITAL] | > 20 µM | > 20 µM
CN(C)CCc1c[nH]c2ccc(C[C@H]3COC(=O)N3)cc12 [ZOLMITRIPTAN] | > 20 µM | > 20 µM
CCn1cc(C(=O)O)c(=O)c2ccc(-c3ccncc3)cc21 [ROSOXACIN] | > 20 µM | > 20 µM
NC(=O)c1ccc(N(C(N)=O)c2c(F)cccc2F)nc1-c1ccc(F)cc1F [VX-702] | > 20 µM | > 20 µM
O=C(/C=C/C=C/c1ccc2c(c1)OCO2)N1CCCCC1 [PIPERINE] | > 20 µM | > 20 µM
CNn1cc(C(=O)O)c(=O)c2cc(F)c(N3CCN(C)CC3)cc21 [AMIFLOXACIN] | > 20 µM | > 20 µM
CCCCCCCCCC(=O)OCCN1CCN(CCCN2c3ccccc3Sc3ccc(C(F)(F)F)cc32)CC1 [FLUPHENAZINE DECANOATE] | > 20 µM | > 20 µM
CO[C@@]1(NC(=O)Cc2cccs2)C(=O)N2C(C(=O)O)=C(COC(N)=O)CS[C@@H]21 [CEFOXITIN] | > 20 µM | > 20 µM
O=C(NCc1ccncc1)C12CC3CC(C1)CC(c1ccc(Cl)cc1)(C3)C2 [ABC-294640] | > 20 µM | > 20 µM
CC(=O)Nc1cccc2c1c(Sc1ccc(Cl)cc1)c(C)n2CC(=O)O [AZD1981] | > 20 µM | > 20 µM
C=CCN1Cc2ccccc2-c2ccccc2C1 [AZAPETINE] | > 20 µM | > 20 µM
O=P(O)(O)C(O)(Cc1cccnc1)P(=O)(O)O [RISEDRONIC ACID] | > 20 µM | > 20 µM
O=C1c2cccnc2OC[C@@H]2CCCN12 | > 20 µM | > 20 µM
C/C=C(/C(=C/C)c1ccc(O)cc1)c1ccc(O)cc1 [DIENESTROL] | > 20 µM | > 20 µM
Cc1c(N(C)CS(=O)(=O)O)c(=O)n(-c2ccccc2)n1C [METAMIZOLE] | > 20 µM | > 20 µM
O=C1Nc2ccc(Cl)cc2C(c2ccccc2Cl)=NC1O (configuration not stated) [LORAZEPAM] | > 20 µM | > 20 µM
COCC(=O)Nc1cc(COc2ccc(NC(=O)Nc3cc(C(C)(C)C)nn3-c3ccc(C)cc3)c3ccccc23)ccn1 [JNJ-49095397] | > 20 µM | > 20 µM
CC(C)NC(=O)COc1cccc(-c2nc(Nc3ccc4[nH]ncc4c3)c3ccccc3n2)c1 [BELUMOSUDIL] | > 20 µM | > 20 µM
CC(=O)OC1CCC2C3CC[C@H]4CC(=O)C(C)=CC4(C)C3CCC12C (some centres not stated) | > 20 µM | > 20 µM
CCc1cnn2c(NCc3ccc[n+]([O-])c3)cc(N3CCCC[C@H]3CCO)nc12 [DINACICLIB] | > 20 µM | > 20 µM
CC(=O)O[C@@H]1CCC2C3CCc4cc(O)ccc4C3CCC21C (some centres not stated) | > 20 µM | > 20 µM
COc1cc(C(=O)NCc2ccc(OCCN(C)C)cc2)cc(OC)c1OC [TRIMETHOBENZAMIDE] | > 20 µM | > 20 µM
CCC(=O)OC(OP(=O)(CCCCc1ccccc1)CC(=O)N1C[C@H](C2CCCCC2)C[C@H]1C(=O)O)C(C)C (some centres not stated) | > 20 µM | > 20 µM
